We go through 6 molecules from US20260256136A1, “STABILIZATION OF ALDEHYDES AND/OR AN ALCOHOLS” (priority 2022, published 2026).

Where two headings read alike, the source gives them in different places.

Series [1] is described as follows: Storage test of aldehyde mixture containing 4-hydroxy-TEMPO and 10 ppm Copper with additive (Example 3). The conditions noted are these: 10 ppm Copper; for suppressing acid formation and degradation of the aldehydes: 55 C 14 days; for Z11-16:OH / Z10-15:Ald / 16:Acid / Z9-16:Ald / 16:Ald / Z11-16:Ald: after 55 C 14 days without cap; for Z11-16:OH: before test 2.16, blank 1.44; for Z10-15:Ald: before test 2.61, blank 2.72; for 16:Acid: before test 3.01, blank 7.94; for Z9-16:Ald: before test 5.33, blank 3.91; for 16:Ald: before test 8.16, blank 6.48; for Z11-16:Ald: before test 74.98, blank 58.18.
Procedure: To a mixture of aldehydes containing; 4-hydroxy-TEMPO (4-hydroxy-2,2,6,6-tetramethylpiperidin-1-oxyl), (Z)-10-pentenenal, (Z)-9-hexadecenal, (Z)-11-hexadecenal, hexadecanal, (Z)-11-hexadecen-1-ol (Z)-11-hexadecenoic acid and 10 ppm Copper in the composition listed in table 3 below was added up to 1% of an additive in table below. The mixture was thoroughly mixed and heated without cap in an oven at 55 C for 14 days.

Series [2] in a line: Storage test of aldehyde mixture containing 4-hydroxy-TEMPO with additive (Example 4). The format is physicochemical. The conditions noted are these: for Heptane / Z11-16:OH / 16:Acid / OH tempo / Z9-16:Ald / 15-1:Ald / 16:Ald / Z11-16:Ald: after 55° C. 14 days without cap; for Heptane: before test 0.04, without additive 0.04; for Z11-16:OH: before test 0.27, without additive 0.06; for 16:Acid: before test 1.05, without additive 6.14; for OH tempo: before test 1.19, without additive 1.11; for Z9-16:Ald: before test 5.09, without additive 3.71; for 15-1:Ald: before test 7.27, without additive 5.83; for 16:Ald: before test 8.41, without additive 6.64; for Z11-16:Ald: before test 75.31, without additive 57.21, in % (unit assumed).
Procedure: To a mixture of aldehydes containing; 4-hydroxy-TEMPO (4-hydroxy-2,2,6,6-tetramethylpiperidin-1-oxyl), (Z)-10-pentenenal, (Z)-9-hexadecenal, (Z)-11-hexadecenal, hexadecanal, (Z)-11-hexadecen-1-ol and (Z)-11-hexadecenoic acid in the composition listed in table 4 below was added up to 1% of an additive in table below. The mixture was thoroughly mixed and heated without cap in an oven at 55° C. for 14 days.

Series [3] can be described thus: Accelerated storage test of aldehyde mixture with additive, 40 ppm Cu (Example 1). The format is physicochemical.
Procedure: To a mixture of aldehydes containing; (Z)-9-hexadecenal, (Z)-11-hexadecenal, hexadecanal, (Z)-11-hexadecen-1-ol, (Z)-11-hexadecenoic acid and 40 ppm Cu was added an additive as indicated in table 1 below. The mixture was thoroughly mixed and heated without cap in an oven at 55° C. for 14 days as an accelerated storage test.
Series [4] in a line: Accelerated storage test of aldehyde mixture with additive, 10 ppm Cu (Example 2). On the procedure: The term “accelerated storage test” as used herein refers to a well known protocol for investigating the stability of a particular composition. The protocol is described in for example the memorandum dated 16 Nov. 2012 from The United States Environmental Protection Agency Washington, D.C. 20460 with the subject title “Accelerated Storage Stability and Corrosion Characteristics Study Protocol”. The protocol evaluates product stability at 54° C.±2° C. for 14 days.

Zinc Pyrithione: in series [1], the “suppressing acid formation and degradation of the aldehydes” value is “particularly efficient at suppressing acid formation and degradation of the aldehydes”; the “Z11-16:OH” value was 1.53; the “Z10-15:Ald” value came to 3.04; the “16:Acid” value stood at 5.28. Also, in series [1], the “Z9-16:Ald” value is 4.44, the “16:Ald” value is reported as 7.01 and the “Z11-16:Ald” value was determined as 64.80. Further, the “suppressing acid formation and/or degradation of the aldehydes” value in series [2] (55° C. 14 days) is reported as “particularly efficient at suppressing acid formation and/or degradation of the aldehydes”. In addition, in series [2], the Heptane is on record as 0.04, the “Z11-16:OH” value was found to be 0.13, the “16:Acid” value is given as 2.29 and the OH tempo is on record as 1.17. Besides, in series [2], the “Z9-16:Ald” value was found to be 4.57, the “15-1:Ald” value amounted to 6.78, the “16:Ald” value is reported as 7.72 and the “Z11-16:Ald” value was found to be 65.87.

In the case of `CC1(C)CC(O)CC(C)(C)N1[O]` [Additive 4-OH-TEMPO, 4-hydroxy-2,2,6,6-tetramethylpiperidin-1-oxyl], in series [1], the “Z11-16:OH” value stood at 1.88, the “Z10-15:Ald” value stood at 2.69, the “16:Acid” value came to 4.18 and the “Z9-16:Ald” value is listed as 4.72. Besides, in series [1], the “16:Ald” value stood at 7.51 and the “Z11-16:Ald” value is 68.82. For the same molecule, in series [2], the Heptane came to 0.04, the “Z11-16:OH” value is 0.19, the “16:Acid” value is 3.00 and the OH tempo amounted to 1.53. Further, in series [2], the “Z9-16:Ald” value was found to be 4.52, the “15-1:Ald” value turned out to be 6.54, the “16:Ald” value came to 7.60 and the “Z11-16:Ald” value amounted to 67.41.

Consider `SC1=NCCS1` [2-thiazoline-2-thiol], for which, in series [1], the “Z11-16:OH” value worked out at 2.18, the “Z10-15:Ald” value amounted to 2.48, the “16:Acid” value was 2.74 and the “Z9-16:Ald” value is 5.06. Also, in series [1], the “16:Ald” value amounted to 8.21 and the “Z11-16:Ald” value turned out to be 75.24. Also, in series [2], the “suppressing acid formation and/or degradation of the aldehydes” value was “particularly efficient at suppressing acid formation and/or degradation of the aldehydes”, the Heptane came to 0.04, the “Z11-16:OH” value was determined as 0.00 and the “16:Acid” value was found to be 1.69. Further, in series [2], the OH tempo is recorded as 0.83, the “Z9-16:Ald” value is reported as 4.64, the “15-1:Ald” value was found to be 6.26 and the “16:Ald” value came to 8.08. The “Z11-16:Ald” value in series [2] was 68.79.

In the case of `[Na+].[O-][n+]1ccccc1[S-]` [Sodium pyrithione], in series [1], the “suppressing acid formation and degradation of the aldehydes” value is “particularly efficient at suppressing acid formation and degradation of the aldehydes”; the “Z11-16:OH” value was 2.14; the “Z10-15:Ald” value was 2.87; the “16:Acid” value stood at 3.39. In series [1], the “Z9-16:Ald” value came to 5.18, the “16:Ald” value is recorded as 8.07 and the “Z11-16:Ald” value was found to be 74.71. Moreover, the suppressing degradation entry in series [3] (55° C. 14 days) was “particularly efficient at suppressing degradation”. Also, in series [3] (after 55° C. 14 days without cap, before test 4.3, blank 3.066023), the “Z9-16:Ald” value turned out to be 3.083. Further, in series [3] (after 55° C. 14 days without cap, before test 6.7, blank 18.84135), the “C16:Acid” value is 8.924. Besides, the “16:Ald” value in series [3] (after 55° C. 14 days without cap, before test 7.5, blank 6.659339) was 6.675. Further, the Z11-16Ald in series [3] (after 55° C. 14 days without cap, before test 69.4, blank 54.83784, in % (unit assumed)) is 57.02. For the same molecule, the “suppressing acid formation and/or degradation of the aldehydes” value in series [2] (55° C. 14 days) is “particularly efficient at suppressing acid formation and/or degradation of the aldehydes”. Besides, in series [2], the Heptane is 0.04, the “Z11-16:OH” value is given as 0.24, the “16:Acid” value stood at 1.58 and the OH tempo came to 1.05. Also, in series [2], the “Z9-16:Ald” value came out at 5.08, the “15-1:Ald” value came out at 6.71, the “16:Ald” value amounted to 8.29 and the “Z11-16:Ald” value stood at 74.65. For the same molecule, the suppressing degradation result in series [4] (55° C. 14 days) is “highly efficient at suppressing degradation”. Also, the “C16:Acid” value in series [4] (after 55° C. 14 days without cap, before test 1.05, blank 17.72) came out at 3.34. In series [4] (after 55° C. 14 days without cap, before test 5.09, blank 3.05), the “Z9-16:Ald” value stood at 4.20. The “16:Ald” value in series [4] (after 55° C. 14 days without cap, before test 8.41, blank 6.60) is 8.73. In series [4] (after 55° C. 14 days without cap, before test 75.31, blank 54.31), the Z11-16Ald is recorded as 76.47.

`Nc1nnc(S)s1` [5-Amino-1,3,4-Thiadiazole-2-thiol]: in series [1], the “Z11-16:OH” value was 2.11, the “Z10-15:Ald” value was 2.95, the “16:Acid” value was 3.03 and the “Z9-16:Ald” value amounted to 4.92. Moreover, in series [1], the “16:Ald” value was found to be 7.81 and the “Z11-16:Ald” value stood at 72.73. Moreover, in series [2], the “suppressing acid formation and/or degradation of the aldehydes” value is reported as “particularly efficient at suppressing acid formation and/or degradation of the aldehydes”, the Heptane is recorded as 0.04, the “Z11-16:OH” value is recorded as 0.12 and the “16:Acid” value is given as 1.87. In series [2], the OH tempo came to 1.12, the “Z9-16:Ald” value is given as 4.46, the “15-1:Ald” value was determined as 6.82 and the “16:Ald” value turned out to be 7.78. In addition, the “Z11-16:Ald” value in series [2] worked out at 69.41.

Regarding `CC1(C)CC(=O)CC(C)(C)N1` [2,2,6,6-tetramethyl-4-piperidone], in series [1], the “Z11-16:OH” value was determined as 1.75, the “Z10-15:Ald” value came out at 3.14, the “16:Acid” value stood at 5.70 and the “Z9-16:Ald” value amounted to 3.83. For the same molecule, in series [1], the “16:Ald” value is reported as 6.41 and the “Z11-16:Ald” value is 59.27. In series [2], the Heptane was found to be 0.04, the “Z11-16:OH” value amounted to 0.15, the “16:Acid” value came out at 4.02 and the OH tempo was 1.11. Moreover, in series [2], the “Z9-16:Ald” value came to 4.03, the “15-1:Ald” value was determined as 6.27, the “16:Ald” value is given as 6.95 and the “Z11-16:Ald” value is on record as 61.06.
